# Measurements as given in the supplement of paper PMC10307832.
# Tests used:
# Test in all cases: relative viability (nuclei count vs DMSO), 5 days (fraction); higher = more cells survive
# [1] = compound: CC(C)N(CCCNC(=O)Nc1ccc(C(C)(C)C)cc1)C[C@H]1O[C@@H](n2ccc3c(N)ncnc32)[C@H](O)[C@@H]1O + O=C(CCCCCCC(=O)Nc1ccccc1)NO [Vorinostat] (partner 1 µM)
# Outline: (§1)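 Relative viability equals treated-well nuclei counts divided by vehicle-well nuclei counts. Counts came from 4× images of lung cancer cell lines grown in 1536-well plates for 5 days after pin-tool dosing on the day after seeding. Dosing used one drug alone or a fixed anchor-drug dose plus five library-drug doses (not always all listed) in √10 steps, and values are medians of duplicate plates.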
# [2] = compound: CC(C)N(CCCNC(=O)Nc1ccc(C(C)(C)C)cc1)C[C@H]1O[C@@H](n2ccc3c(N)ncnc32)[C@H](O)[C@@H]1O + COc1cccc2cc(-c3nc([C@H]4CC[C@H](C(=O)O)CC4)n4ncnc(N)c34)[nH]c12 [OSI-027] (partner 0.5 µM)
# Outline: as §1
# Shikonin + Dasatinib = compound: CC(C)=CC[C@@H](O)C1=CC(=O)c2c(O)ccc(O)c2C1=O [Shikonin] + Cc1nc(Nc2ncc(C(=O)Nc3c(C)cccc3Cl)s2)cc(N2CCN(CCO)CC2)n1 [Dasatinib] (partner 0.075 µM)
# Outline: as §1
# [3] = compound: CC(C)N(CCCNC(=O)Nc1ccc(C(C)(C)C)cc1)C[C@H]1O[C@@H](n2ccc3c(N)ncnc32)[C@H](O)[C@@H]1O + Cc1nc(NC(=O)N2CCC[C@H]2C(N)=O)sc1-c1ccnc(C(C)(C)C(F)(F)F)c1 [Alpelisib] (partner 2 µM)
# Outline: as §1
Cell Line,relative viability ([1]; first compound 0.08 µM),relative viability ([1]; first compound 0.253 µM),relative viability ([1]; first compound 0.8 µM),relative viability ([1]; first compound 2.53 µM),relative viability ([1]; first compound 8 µM),relative viability ([2]; first compound 0.08 µM),relative viability ([2]; first compound 0.253 µM),relative viability ([2]; first compound 0.8 µM),relative viability ([2]; first compound 2.53 µM),relative viability ([2]; first compound 8 µM),relative viability (Shikonin + Dasatinib; first compound 0.01 µM),relative viability (Shikonin + Dasatinib; first compound 0.1 µM),relative viability (Shikonin + Dasatinib; first compound 0.3162 µM),relative viability (Shikonin + Dasatinib; first compound 1 µM),relative viability ([3]; first compound 0.08 µM),relative viability ([3]; first compound 0.253 µM),relative viability ([3]; first compound 0.8 µM),relative viability ([3]; first compound 2.53 µM),relative viability ([3]; first compound 8 µM)
HARA,0.559,0.511,0.529,0.496,0.475,0.454,0.536,0.621,0.568,0.375,0.239,0.281,0.299,0.28,0.795,0.744,0.763,0.701,0.779
NCI-H2126,0.672,0.702,0.825,0.721,0.711,0.627,0.77,0.734,0.715,0.672,0.599,0.595,0.656,0.685,0.734,0.712,0.78,0.783,0.722
NCI-H1437,0.8,0.799,0.759,0.791,0.759,0.804,0.831,0.81,0.891,0.867,0.377,0.385,0.367,0.531,0.9,1.01,1.1,0.903,0.945
NCI-H727,1.12,1.23,1.16,1.04,1.17,0.635,0.597,0.521,0.495,0.666,0.391,0.397,0.344,0.241,0.448,0.511,0.612,0.547,0.673
COR-L23,0.378,0.431,0.462,0.5,0.374,0.758,0.739,0.697,0.735,0.689,0.482,0.49,0.532,0.462,0.74,0.765,0.791,0.955,0.759
COR-L 105,0.893,1.41,0.879,0.89,0.818,0.682,0.581,0.664,0.427,0.648,0.329,0.329,0.307,0.335,0.733,1.08,1.06,1.02,0.974
LK-2,0.325,0.282,0.391,0.315,0.213,0.235,0.277,0.215,0.236,0.213,0.273,0.258,0.228,0.267,0.923,1.02,1.01,0.934,1.02
201T,0.984,0.975,,0.911,0.931,0.417,0.864,0.624,0.77,0.903,0.561,0.661,0.579,0.615,1,1.03,1.02,0.98,0.962
NCI-H650,0.414,0.444,0.459,0.426,0.401,0.485,0.63,0.602,0.468,0.504,0.462,0.449,0.414,0.464,0.984,1.09,1.21,1.13,0.958
H3255,0.743,0.807,0.717,0.788,0.477,0.564,0.614,0.685,0.543,0.538,0.285,0.331,0.325,0.348,0.93,0.711,0.662,0.714,0.665
NCI-H661,0.77,0.834,0.812,0.809,0.785,0.719,0.775,0.68,0.714,0.683,0.866,0.856,0.816,0.983,0.692,0.61,1.03,0.63,0.645
NCI-H2085,0.769,0.667,0.813,0.887,0.744,0.847,0.621,0.705,0.757,1,0.229,0.248,0.221,0.222,0.969,0.978,1.05,0.972,0.913
NCI-H2347,0.54,0.537,0.458,0.608,0.546,0.459,0.427,0.413,0.574,0.509,0.268,0.351,0.296,0.2,0.882,0.904,0.935,1.1,1
NCI-H1944,0.508,0.48,0.484,0.637,0.546,0.413,0.41,0.401,0.452,0.405,0.193,0.247,0.196,0.158,0.769,0.806,0.774,0.852,0.82
NCI-H1793,0.617,,0.761,0.773,0.574,0.27,,0.228,0.274,0.291,0.419,0.376,0.381,0.461,0.554,,0.715,0.527,0.669
NCI-H647,0.415,0.549,0.472,0.598,0.518,0.511,0.579,,0.742,0.586,0.159,0.156,0.145,0.171,1.14,,1.08,1.05,1.25
NCI-H596,0.601,0.427,0.39,0.674,0.714,0.672,,0.507,0.829,0.748,0.585,0.59,0.566,0.641,0.567,0.42,0.54,0.434,0.482

Cell Line,relative viability ([1]; first compound 0.08 µM),relative viability ([1]; first compound 0.253 µM),relative viability ([1]; first compound 0.8 µM),relative viability ([1]; first compound 2.53 µM),relative viability ([1]; first compound 8 µM),relative viability ([2]; first compound 0.08 µM),relative viability ([2]; first compound 0.253 µM),relative viability ([2]; first compound 0.8 µM),relative viability ([2]; first compound 2.53 µM),relative viability ([2]; first compound 8 µM),relative viability (Shikonin + Dasatinib; first compound 0.01 µM),relative viability (Shikonin + Dasatinib; first compound 0.1 µM),relative viability (Shikonin + Dasatinib; first compound 0.3162 µM),relative viability (Shikonin + Dasatinib; first compound 1 µM),relative viability ([3]; first compound 0.08 µM),relative viability ([3]; first compound 0.253 µM),relative viability ([3]; first compound 0.8 µM),relative viability ([3]; first compound 2.53 µM),relative viability ([3]; first compound 8 µM)
EKVX,0.64,0.772,0.705,0.62,0.705,0.718,0.713,0.71,0.704,0.668,0.554,0.442,0.5,0.618,0.908,0.883,0.827,0.855,0.676
NCI-H358,0.725,0.629,0.721,0.714,0.613,0.75,0.61,0.724,0.752,0.714,0.145,0.189,0.148,0.157,0.78,0.823,0.901,0.87,0.917
EPLC-272H,0.404,0.439,0.664,0.4,0.708,0.275,0.423,0.274,0.283,0.259,0.34,0.322,0.315,0.398,0.95,0.912,0.856,1.03,1.03
NCI-H1395,0.727,0.58,0.427,0.638,0.786,0.67,0.631,0.57,0.62,0.719,0.376,0.403,0.45,0.449,1.11,0.996,,1.21,1.05
NCI-H2228,0.593,0.703,0.543,0.556,0.702,0.614,0.632,0.526,0.623,0.78,0.539,0.534,0.46,0.522,0.782,,0.796,0.76,0.745
LXF-289,0.748,0.762,0.726,0.752,0.701,0.791,0.797,0.852,0.828,0.742,0.213,0.214,0.231,0.229,1.01,1.05,1.07,1.09,1.04
NCI-H2023,0.605,0.608,0.576,0.584,0.45,0.375,0.501,0.414,0.392,0.353,0.674,0.646,0.626,0.611,0.532,0.619,0.619,0.68,0.622
NCI-H3122,0.957,1.2,0.894,0.991,0.921,0.897,1.02,0.925,0.926,0.722,0.882,0.761,0.969,0.861,0.808,0.846,0.797,0.858,0.701
NCI-H1755,0.769,0.74,0.666,0.756,0.723,0.801,0.753,0.672,0.717,0.667,0.484,0.46,0.499,0.475,0.891,0.929,0.905,0.882,0.84
HCC-78,0.41,0.391,0.4,0.42,0.488,0.376,0.388,0.356,0.364,0.346,0.39,0.464,0.363,0.417,0.272,0.289,0.323,0.334,0.315
LOU-NH91,0.9,0.832,,0.943,0.869,0.734,0.714,0.666,0.689,0.728,0.551,0.551,0.639,0.584,0.631,0.679,,0.753,0.663
NCI-H322M,0.891,0.899,0.805,0.842,0.912,0.514,0.618,0.575,0.693,0.579,0.237,0.271,0.261,0.27,0.732,0.775,0.766,0.829,0.829
HCC-827,0.862,0.903,0.579,0.902,0.875,0.699,0.838,,0.722,0.665,0.266,0.357,0.316,0.344,0.922,0.938,,0.952,0.919
NCI-H1975,0.748,0.687,0.701,0.658,0.709,0.729,0.672,0.403,0.577,0.598,0.354,0.344,0.344,0.359,0.555,0.529,0.586,0.611,0.567
NCI-H1651,0.543,0.542,0.504,0.577,0.576,0.671,0.556,0.653,0.811,0.77,0.385,0.391,0.37,0.438,0.882,0.98,0.92,0.935,1.04
NCI-H460,0.719,0.727,0.746,0.701,0.734,0.62,0.551,0.693,0.564,0.601,0.509,0.762,0.556,0.605,0.378,0.582,0.442,0.301,0.396
LCLC-103H,0.717,0.692,0.585,0.701,0.748,0.447,0.58,0.495,0.451,0.467,0.499,0.462,0.549,0.586,1.03,0.905,0.907,0.99,0.898
